Reference: patent publication US20200032347A1, “RNA profiling for individualized diet and treatment advice” (Stichting Katholieke Universiteit, priority 2017, published 2020)

What was measured:
[1] = system: SKRC-7 cells; assay: Cell proliferation assay (SRB, cellular protein content); assay type: cell-based, human; settings: proliferation assays
Protocol: (§1) Cellular protein content was determined as a measure of cell proliferation, using suforhodamine B (SRB) assays as described in (83). Sensitivity to EGCG was determined by adding a concentration range of EGCG (0-50 μM) or DMSO solvent one day after seeding 1,000 cells per well in 96-wells plates (Nunc, Roskilde, Denmark). An SRB assay was performed after 3 days, and IC50 values were determined in GraphPad Prism using the sigmoidal dose response with variable slope nonlinear regression analysis.
(§2) Furthermore cell proliferation over 8 days in presence or absence of EGCG was determined. Cells were seeded at 1,000 cells per well and at day 1 and day 5 after seeding the medium was changed for medium with or without 10 μM EGCG. Controls were incubated with DMSO. Protein content was determined every 2 days. Experiments were performed in triplicate and statistical significance was determined using one-way ANOVA with bonferroni correction.

[2] = system: SKRC-17 cells; assay: as above; assay type: cell-based, human; settings: proliferation assays
Protocol: as §1, §2

NC(=O)c1ccc(N)nc1 [Compound 6-AN, 6-aminonicotinamide]
cell proliferation response [1]: increase of cell proliferation | cell proliferation response [2]: significantly decreased cell proliferation
